# Test results taken from patent publication US12653191B2, “Active compound combinations” (Bayer Aktiengesellschaft, priority 2020, dated 2026).
# Legend:
# [1] = system: Alternaria alternate; experiment: in vitro-Test with fungal microorganisms, Method A (tables A1-A12); format: cell-based, Alternaria alternata; settings: Alternaria, applied alone, read-out: Efficacy %
# Procedure, shortened: (§1)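 Test compound in methanol plus alkylaryl-polyglycol-ether emulsifier was dried into wells, then liquid potato dextrose medium containing spores or mycelium of the fungus was added. Plates were incubated at 20° C and 85% relative humidity; growth read at 620 nm after 3-5 days, efficacy relative to untreated control.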
# [2] = system: Alternaria alternata; experiment: in vitro-Test with fungal microorganisms, Method B (tables A13-A22); format: cell-based; settings: Alternaria alternata, single compound, read-out: Efficacy
# Procedure, shortened: (§2)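 Cpd in MeOH + alkylaryl-polyglycol-ether, solvent evaporated; liquid medium + fungal spores/mycelium added; OD600 read; 3–7 d, 20° C., 85% RH; growth inhibition by photometry, % efficacy vs untreated ctrl.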
# [3] = system: Botrytis cinerea; experiment: in vitro-Test with fungal microorganisms, Method A (tables B1-B14); format: cell-based; settings: Botrytis cinerea, alone, read-out: Efficacy %
# Procedure, shortened: as §1
# [4] = system: Botrytis cinerea; experiment: in vitro-Test with fungal microorganisms, Method B (tables B15-B18); format: cell-based; settings: Botrytis cinerea, alone, 1 ppm; read-out: Efficacy %
# Procedure, shortened: as §2
# [5] = system: Cercospora beticola; experiment: in vitro-Test with fungal microorganisms, Method A (tables C1-C10); format: cell-based; settings: Cercospora beticola, read-out: Efficacy %
# Procedure, shortened: as §1
# [6] = system: Cercospora beticola; experiment: in vitro-Test with fungal microorganisms, Method B (tables C11-C20); format: cell-based; settings: Cercospora beticola, read-out: Efficacy %
# Procedure, shortened: as §2
# [7] = system: Colletotrichum lindemuthianum; experiment: in vitro-Test with fungal microorganisms, Method A (tables D1-D8); format: cell-based; settings: Colletotrichum lindemuthianum, mixing partner alone, read-out: Efficacy %
# Procedure, shortened: as §1
# [8] = system: Cordana musae; experiment: in vitro-Test with fungal microorganisms, Method A (tables E1-E8); format: cell-based; settings: Neocordana musae, single substance, read-out: Efficacy %
# Procedure, shortened: as §1
# [9] = system: Cordana musae; experiment: in vitro-Test with fungal microorganisms, Method B (tables E9-E16); format: cell-based
# Procedure, shortened: as §2
# [10] = system: Diaporthe citri; experiment: in vitro-Test with fungal microorganisms, Method A (tables F1-F11); format: cell-based; settings: Diaporthe citri, applied alone, 0.04 ppm; read-out: Efficacy
# Procedure, shortened: as §1
# [11] = system: Fusarium culmorum; experiment: in vitro-Test with fungal microorganisms, Method B (tables G5-G15); format: cell-based; settings: Fusarium culmorum, 0.04 ppm, alone; read-out: Efficacy
# Procedure, shortened: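 Read photometrically at 600 nm after 3-7 days at 20° C and 85% relative humidity, Fusarium culmorum growth inhibition is expressed against untreated control. Wells hold solvent-evaporated compound (from methanol/emulsifier) overlaid with spore- or mycelium-amended growth medium.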
# [12] = system: Parastagonospora nodorum; experiment: in vitro-Test with fungal microorganisms, Method A (tables H1-H4); format: cell-based
# Description: Example: In Vitro-Test with Fungal Microorganisms
# Wells of 96-well microtiter plates are filled with 10 μl of a preparation of test compound or compound combination in methanol+emulsifier alkylaryl-polyglycol-ether. Thereafter, the solvent is evaporated in a hood. At the next step, 100 μl of liquid potato dextrose medium is given into each well, that has been amended with an appropriate concentration of spores or mycelium suspension of the test fungus.
# With the aid of a photometer, the extinction in all wells is measured at the wavelength of 620 nm.
# The microtiter plates are incubated at 20° C. and 85% relative humidity. The inhibition of growth is determined again photometrically 3-5 days after the application. Efficacy is calculated in relation to the untreated control, 0% efficacy means fungal growth as high as in untreated control while 100% efficacy means no fungal growth is measured.
# The data in tables A1 to A12, B1 to B14, C1 to C10, D1 to D8, E1 to E8, F1 to F11, G1 to G4, H1 to H4 and I1 to I5 were collected according to Method A. The data in tables A13 to A22, B15 to B18, C11 to C20, E9 to E16, F12 to F15, G5 to G15, H5 to H8, I6 to I11 and J1 to J11 were collected according to Method B.
# [13] = system: Parastagonospora nodorum; experiment: in vitro-Test with fungal microorganisms, Method B (tables H5-H8); format: cell-based; settings: Parastagonospora nodorum, read-out: Efficacy
# Procedure, shortened: as §2
# [14] = system: Ustilago segetum var. avenae; experiment: in vitro-Test with fungal microorganisms, Method A (tables I1-I5); format: cell-based; settings: alone, read-out: Efficacy %
# Procedure, shortened: as §1
# [15] = system: Ustilago segetum var. avenae; experiment: in vitro-Test with fungal microorganisms, Method B (tables I6-I11); format: cell-based; settings: read-out: Efficacy %
# Procedure, shortened: as §2
# [16] = system: Colletotrichum coccodes; experiment: in vitro-Test with fungal microorganisms, Method B (tables J1-J11); format: cell-based; settings: Colletotrichum coccodes, read-out: Efficacy %
# Procedure, shortened: as §2
structure (smiles),measurement,setting,value
"CC1COC(Cn2cncn2)(c2ccc(Oc3ccc(Cl)cc3)cc2Cl)O1 (stereo not drawn) [(1.002) difenoconazole, difenoconazole]",inhibition of growth at 0.04 ppm,[1]; 0.04 ppm,10%
same,inhibition of growth at 0.2 ppm,[1]; 0.2 ppm,28%
same,inhibition of growth at 1 ppm,[1]; 1.0 ppm,96%
same,inhibition of growth at 0.04 ppm,[2]; 0.04 ppm,21%
same,inhibition of growth at 0.2 ppm,[2]; 0.2 ppm,53%
same,inhibition of growth at 1 ppm,[2]; 1 ppm,94%
same,inhibition of growth at 0.008 ppm,[3]; 0.008 ppm,8%
same,inhibition of growth at 0.04 ppm,[3]; 0.04 ppm,0%
same,inhibition of growth at 0.2 ppm,[3]; 0.2 ppm,0%
same,inhibition of growth at 1 ppm,[3]; 1.0 ppm,0%
same,inhibition of growth at 1 ppm,[4],13%
same,inhibition of growth at 0.008 ppm,[5]; 0.008 ppm alone,5%
same,inhibition of growth at 0.008 ppm,[5]; 0.008 ppm,15%
same,inhibition of growth at 0.04 ppm,[5]; 0.04 ppm alone,20%
same,inhibition of growth at 0.04 ppm,[5]; 0.04 ppm,40%
same,inhibition of growth at 0.2 ppm,[5]; 0.2 ppm alone,79%
same,inhibition of growth at 0.2 ppm,[5]; 0.2 ppm,89%
same,inhibition of growth at 1 ppm,[5]; 1.0 ppm alone,99%
same,inhibition of growth at 1 ppm,[5]; 1.0 ppm,99%
same,inhibition of growth at 0.008 ppm,[6],5%
same,inhibition of growth at 0.04 ppm,[6],60%
same,inhibition of growth at 0.2 ppm,[6],98%
same,inhibition of growth at 1 ppm,[6]; 1 ppm,99%
same,inhibition of growth at 0.008 ppm,[6]; single compound,16%
same,inhibition of growth at 0.04 ppm,[6]; single compound,51%
same,inhibition of growth at 0.2 ppm,[6]; single compound,100%
same,inhibition of growth at 0.008 ppm,[7]; 0.008 ppm,0%
same,inhibition of growth at 0.04 ppm,[7]; 0.04 ppm,2%
same,inhibition of growth at 0.2 ppm,[7]; 0.2 ppm,0%
same,inhibition of growth at 1 ppm,[7]; 1.0 ppm,16%
same,inhibition of growth at 0.2 ppm,[8]; 0.2 ppm,0%
same,inhibition of growth at 1 ppm,[8]; 1.0 ppm,14%
same,inhibition of growth at 0.04 ppm,"[9]; Neocordana musae, single active, 0.04 ppm, read-out: Efficacy",0%
same,inhibition of growth at 0.2 ppm,"[9]; Neocordana musae, single active, 0.2 ppm, read-out: Efficacy",16%
same,inhibition of growth at 1 ppm,"[9]; Neocordana musae, single active, 1 ppm, read-out: Efficacy",20%
same,Efficacy %,"[9]; single substance, 0.04 ppm",0%
same,inhibition of growth at 0.04 ppm,[10],0.04%
same,inhibition of growth at 0.04 ppm,[11],26%
same,Efficacy,[12]; 0.04 ppm,22%
same,Efficacy,[12]; 0.2 ppm,88%
same,inhibition of growth at 0.008 ppm,[13]; 0.008 ppm,32%
same,inhibition of growth at 0.04 ppm,[13]; 0.04 ppm,100%
same,inhibition of growth at 0.2 ppm,[13]; 0.2 ppm,100%
same,inhibition of growth at 0.008 ppm,[14]; 0.008 ppm,8%
same,inhibition of growth at 0.04 ppm,[14]; 0.04 ppm,14%
same,inhibition of growth at 1 ppm,[14]; 1.0 ppm,100%
same,inhibition of growth at 0.008 ppm,[15]; 0.008 ppm,2%
same,inhibition of growth at 0.04 ppm,[15]; 0.04 ppm,40%
same,inhibition of growth at 0.2 ppm,[15]; 0.2 ppm,100%
same,inhibition of growth at 0.2 ppm,[16]; 0.2 ppm,0.31%
same,inhibition of growth at 1 ppm,[16]; single active compound at 1 ppm,24%
